{"source": "patent US20120077836A1", "about": "“METHODS OF ADMINISTERING (4AR,10AR)-1-N-PROPYL-1,2,3,4,4A,5,10,10A-OCTAHYDROBENZO [G] QUINOLINE-6,7-DIOL AND RELATED COMPOUNDS ACROSS THE ORAL MUCOSA, THE NASAL MUCOSA OR THE SKIN AND PHARMACEUTICAL COMPOSITIONS THEREOF” (priority 2009, published 2012)", "key": {"[1]": {"system": "MPTP treated marmosets", "experiment": "Anti-parkinsonian effects in MPTP-treated common marmosets", "type": "in vivo, common marmoset", "set-up": "disability score (120 min) / disability score (180 min) / disability score (240 min) / disability score (300 min) / disability score (360 min) / disability score (420 min) / disability score (60 min): scale not given here", "method": "The experiments were conducted using 6 MPTP treated marmosets (2.0 mg/kg daily for up to 5 consecutive days dissolved in sterile 0.9% saline solution). All the animals had previously been treated with L-DOPA (12.5 mg/kg p.o., plus carbidopa 12.5 mg/kg p.o.) administered daily for up to 30 days in order to induce dyskinesia. […] Domperidone was administered 60 min before any of the test compounds. Domperidone is an antidopaminergic drug that suppresses nausea and vomiting. Locomotor activity was assessed using test cages that are comprised of 8 photo-electric switches comprised of 8 infra-red beams which are strategically placed in the cage and interruption of a beam is recorded as one count. […] The assessment of motor disability was performed by a trained observer blinded to the treatment.\nThe dose chosen for this challenge is at the top of the dose response curve for this drug."}, "[2]": {"system": "rats with unilateral 6-OHDA lesions", "conditions": "rat, in vivo, sc"}, "[3]": {"system": "rats with unilateral 6-OHDA lesions", "experiment": "Rotation response in 6-OHDA rats after buccal delivery", "type": "in vivo, rat"}, "[4]": {"system": "MPTP/AMPT mouse model", "experiment": "Superiority model, hypomotility in the MPTP/AMPT mouse model", "type": "in vivo", "method": "MPTP (1-methyl-4-phenyl-1,2,3,6-tetrahydropyridine) is a neurotoxin that causes permanent symptoms of Parkinson's disease by killing certain neurons in the substantia nigra of the brain. It is used to study the disease in monkeys and mice. […] Various compounds (all dosed subcutaneously) were tested for their ability to reverse the motility deficits produced in this model."}, "[5]": {"system": "rats with unilateral 6-OHDA lesions", "experiment": "D1/D2 dissection, rotation response in rats with unilateral 6-OHDA lesions", "type": "in vivo, rat", "conditions": "6-OHDA rats; for MED (minimum effective dose to induce rotation) / MEDNemonapride (MED to overcome Nemonapride block): dosed SC; for MEDNemonapride (MED to overcome Nemonapride block): * = rotations could not be blocked by SCH23390", "text": "Rats weighing 200-250 g were subjected to unilateral 6-OHDA lesions. […] Nemonapride is a D2 antagonist that blocks the D2 receptors, therefore any observed rotations would be dependent upon activity at the D1 receptors."}, "[6]": {"biological_target": "T1, human recombinant D1 receptor (Homo sapiens, UniProt P21728)", "T1 construct": "expressed in transfected cells", "T1 sequence (P21728 whole entry)": "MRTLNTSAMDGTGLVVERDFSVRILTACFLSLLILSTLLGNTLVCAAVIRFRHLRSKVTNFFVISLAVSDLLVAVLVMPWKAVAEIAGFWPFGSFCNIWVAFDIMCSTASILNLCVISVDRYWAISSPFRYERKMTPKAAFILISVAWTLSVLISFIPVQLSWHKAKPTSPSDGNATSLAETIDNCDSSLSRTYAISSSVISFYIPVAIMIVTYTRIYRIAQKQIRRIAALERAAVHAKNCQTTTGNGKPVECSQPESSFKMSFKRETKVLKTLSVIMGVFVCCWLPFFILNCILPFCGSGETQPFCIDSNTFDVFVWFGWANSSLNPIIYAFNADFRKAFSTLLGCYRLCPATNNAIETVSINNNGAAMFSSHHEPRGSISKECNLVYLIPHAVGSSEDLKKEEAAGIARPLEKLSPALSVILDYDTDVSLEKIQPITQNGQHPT", "experiment": "D1 cAMP assay", "type": "cell-based", "conditions": "read-out: intrinsic activity (efficacy)", "method": "The ability of the compounds to either stimulate or inhibit the D1 receptor mediated cAMP formation in CHO cells stably expressing the human recombinant D1 receptor was measured as follows. Cells were seeded in 96-well plates at a concentration of 11000 cells/well 3 days prior to the experiment."}, "[7]": {"biological_target": "T2, human D2 receptor (Homo sapiens, UniProt P14416)", "T2 construct": "expressed in transfected cells; host or cells: CHO cells", "T2 sequence (P14416 whole entry)": "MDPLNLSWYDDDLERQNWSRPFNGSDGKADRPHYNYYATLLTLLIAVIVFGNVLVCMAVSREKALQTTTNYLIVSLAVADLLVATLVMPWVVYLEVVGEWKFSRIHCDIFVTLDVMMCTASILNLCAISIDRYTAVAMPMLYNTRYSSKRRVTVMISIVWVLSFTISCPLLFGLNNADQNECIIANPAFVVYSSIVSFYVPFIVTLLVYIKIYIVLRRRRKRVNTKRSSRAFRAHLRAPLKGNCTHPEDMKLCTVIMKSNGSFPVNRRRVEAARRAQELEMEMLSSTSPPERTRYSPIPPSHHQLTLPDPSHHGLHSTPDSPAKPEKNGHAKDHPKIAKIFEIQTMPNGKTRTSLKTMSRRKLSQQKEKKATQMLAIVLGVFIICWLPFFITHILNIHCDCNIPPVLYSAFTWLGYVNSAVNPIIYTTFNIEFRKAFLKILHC", "experiment": "D2 cAMP assay", "type": "cell-based", "conditions": "read-out: intrinsic activity (efficacy)", "method": "The ability of the compounds to either stimulate or inhibit the D2 receptor mediated inhibition of cAMP formation in CHO cells transfected with the human D2 receptor was measured as follows. Cells were seeded in 96 well plates at a concentration of 8000 cells/well 3 days prior to the experiment. On the day of the experiment the cells were washed once in preheated G buffer (1 mM MgCl2, 0.9 mM CaCl2, 1 mM IBMX in PBS) and the assay was initiated by addition of 100 micro-1 of a mixture of 1 micro-M quinpirole, 10 microM forskolin and test compound in G buffer (antagonism) or 10 micro-M forskolin and test compound in G buffer (agonism)."}, "[8]": {"system": "reserpinesed rats", "experiment": "Reversal of reserpine-induced hypomotility in rats", "type": "in vivo, rat", "method": "Rats weighing ca. 200 g were treated with reserpine (5 mg/kg subcutaneously as a solution in 20% aqueous solutol for which pH was adjusted to 4 with methanesulfonic acid). […] Group 1: treated with 20% ethanol in 0.7% aqueous sodium chloride subcutaneously."}, "[9]": {"system": "6-OHDA rats", "experiment": "Reversal of L-DOPA-induced dyskinesias in 6-OHDA rats (AIMS)", "type": "in vivo, rat", "conditions": "after 7 days L-DOPA/Benserazide priming; once daily days 1-10: L-DOPA/Benserazide 6/15 mg/kg SC; compound 10 0.0013 mg/kg SC; pramipexole […] SC", "text": "Animals were observed on Days 1, 3 and 5 and AIMS were scored. The day 5 scores were then used to separate the animals into three groups of 6 animals each. Group 1 continued with daily L-DOPA treatment. […] Treatment continued daily for 10 days and the amount of dyskinesia was scored on days 1, 5, 9 and 10."}, "[10]": {"conditions": "Table 4e direct comparison, AMPT 250 mg/kg SC, apomorphine 1 mg/kg SC, pramipexole 1 mg/kg SC, compound 10 0.030 mg/kg SC, controls: vehicle 509, AMPT/vehicle 2"}}, "data": [{"smiles": "N[C@@H](Cc1ccc(O)c(O)c1)C(=O)O", "note": "[L-DOPA, reference compound]", "values": [{"measurement": "disability score (60 min)", "setting": "[1]; 12.5 mg/kg PO", "result": 10.0}, {"measurement": "disability score (120 min)", "setting": "[1]; 12.5 mg/kg PO", "result": 2.0}, {"measurement": "disability score (180 min)", "setting": "[1]; 12.5 mg/kg PO", "result": 1.8}, {"measurement": "disability score (240 min)", "setting": "[1]; 12.5 mg/kg PO", "result": 3.2}, {"measurement": "disability score (300 min)", "setting": "[1]; 12.5 mg/kg PO", "result": 5.0}, {"measurement": "disability score (360 min)", "setting": "[1]; 12.5 mg/kg PO", "result": 9.7}, {"measurement": "disability score (420 min)", "setting": "[1]; 12.5 mg/kg PO", "result": 11.0}, {"measurement": "effect on locomotor activity and motor disability", "setting": "[1]; L-DOPA 12.5 mg/kg p.o., compound 10 0.001 or 0.01 mg/kg SC", "result": "increased locomotor activity and reversed motor disability"}, {"measurement": "dyskinesia score (AIMS)", "setting": "[2]", "result": "about 65"}]}, {"smiles": "CN1CCc2cccc3c2[C@H]1Cc1ccc(O)c(O)c1-3", "note": "[apomorphine, reference compound]", "values": [{"measurement": "mean number of rotations over 3 h", "setting": "[3]; apomorphine 0.1 mg/kg SC, compound 10 0.01 mg/kg buccally", "result": 1123}, {"measurement": "induction of rotation", "setting": "[3]; apomorphine subcutaneous, compound 10 buccal", "result": "induced rotations"}, {"measurement": "reversal of motility deficits", "setting": "[4]; MPTP/AMPT mice, all dosed subcutaneously", "result": "restored locomotion in the mice in a dose-dependent manner"}, {"measurement": "activity count (0.5-1.5 h)", "setting": "[4]; Table 4b, AMPT 250 mg/kg SC at -1.5 h, 1.0 mg/kg SC, controls: vehicle 694, AMPT/vehicle 1", "result": 912}, {"measurement": "activity count (0.5-1.5 h)", "setting": "[4]; [10]", "result": 904}, {"measurement": "dyskinesia score (AIMS)", "setting": "[2]", "result": "about 65"}, {"measurement": "MED (minimum effective dose to induce rotation)", "setting": "[5]", "result": 0.010, "unit": "mg/kg"}, {"measurement": "MEDNemonapride (MED to overcome Nemonapride block)", "setting": "[5]", "result": 0.030, "unit": "mg/kg"}, {"measurement": "Emax", "setting": "[6]", "result": 86, "unit": "%"}, {"measurement": "Emax", "setting": "[7]", "result": 100, "unit": "%"}, {"measurement": "reversal of reserpine-induced hypomotility", "setting": "[8]; administered subcutaneously", "result": "reversed the reserpine-induced hypomotility"}, {"measurement": "activity count", "setting": "[8]; reserpine 5 mg/kg SC 23-24 h before, apomorphine 1 mg/kg SC, compound 10 0.01 mg/kg SC, over 3 hours, controls: vehicle 486, reserpine/vehicle 17", "result": 440}]}, {"smiles": "CC(C)C[C@H]1C(=O)N2CCC[C@H]2[C@]2(O)O[C@](NC(=O)[C@@H]3C=C4c5cccc6[nH]c(Br)c(c56)C[C@H]4N(C)C3)(C(C)C)C(=O)N12", "note": "[bromocriptine]", "values": [{"measurement": "activity count (0.5-1.5 h)", "setting": "[4]; Table 4d, AMPT 250 mg/kg SC, 1 mg/kg SC, controls: vehicle 336, AMPT/vehicle 16", "result": 25}, {"measurement": "activity count (0.5-1.5 h)", "setting": "[4]; Table 4d, AMPT 250 mg/kg SC, 5 mg/kg SC", "result": 17}, {"measurement": "activity count (0.5-1.5 h)", "setting": "[4]; Table 4d, AMPT 250 mg/kg SC, 10 mg/kg SC", "result": 36}]}, {"smiles": "CCCN[C@H]1CCc2nc(N)sc2C1", "note": "[pramipexole]", "values": [{"measurement": "activity count (0.5-1.5 h)", "setting": "[4]; [10]", "result": 176}, {"measurement": "MED (minimum effective dose to induce rotation)", "setting": "[5]", "result": 0.1, "unit": "mg/kg"}, {"measurement": "MEDNemonapride (MED to overcome Nemonapride block)", "setting": "[5]", "result": 1.0, "unit": "mg/kg"}, {"measurement": "mean AIM score (days 1, 5, 9, 10)", "setting": "[9]", "result": 58}]}, {"smiles": "CCCN(CCc1cccs1)[C@H]1CCc2c(O)cccc2C1", "note": "[rotigotine]", "values": [{"measurement": "D1 component in rotation model", "setting": "[5]; SC", "result": "could not be observed"}, {"measurement": "MED (minimum effective dose to induce rotation)", "setting": "[5]", "result": 0.030, "unit": "mg/kg"}, {"measurement": "MEDNemonapride (MED to overcome Nemonapride block)", "setting": "[5]", "result": 0.30, "unit": "mg/kg"}]}]}
